Test results taken from patent US8691757B2 (Bristol-Myers Squibb Company, priority 2011, dated 2014).

Columns and labels:
[1] = tested on: HCV genotype 1a (H77 strain) replicon in HUH-7 cells; assay: HCV replicon luciferase reporter assay, genotype 1a; format: cell-based; conditions: Hepatitis C virus, 72 h, HCV genotype 1a replicon, 3 days incubation, Renilla luciferase, range classes
Excerpt: (§1) An HCV replicon whole cell system was established as described by Lohmann V, Korner F, Koch J, Herian U, Theilmann L, Bartenschlager R., Science 285(5424):110-3 (1999) and modified to introduce a luciferase reporter, as first described by Krieger et al (Krieger N, Lohmann V, and Bartenschlager R, J. Virol. 75(10):4614-4624 (2001)). CDNA encoding a humanized form of the Renilla luciferase gene and a linker sequence fused directly to the 3′-end of the luciferase gene were introduced into the replicon construct using an Asc1 restriction site located in core, directly upstream of the neomycin marker gene. The adaptive mutation at position 1179 (serine to isoleucine) was also introduced (Blight K J, Kolykhalov, A A, Rice, C M, Science 290(5498):1972-1974). A stable cell line constitutively expressing this HCV replicon construct was generated by first linearizing plasmid DNAs with ScaI. RNA transcripts were synthesized in vitro using the T7 MegaScript transcription kit (Ambion, Austin, Tex.) according to manufacturer's directions. In vitro transcripts of the cDNA were transfected into the human hepatoma cell line, HUH-7. […] Resulting cell lines were characterized for positive and negative strand RNA production and protein production over time.
A stable HCV replicon luciferase reporter cell line representing the genotype 1a H77 strain (Yanagi M, Purcell R H, Emerson S U, et al. Transcripts from a single full-length cDNA clone of hepatitis C virus are infectious when directly transfected into the liver of a chimpanzee. Proc Natl Acad Sci USA 1997; 94(16):8738-8743) was generated as described previously for the genotype 1b (Con1) replicon luciferase cell line. The replicon construct was modified by introducing mutations were introduced into the genes encoding the NS3 helicase domain (proline replaced by leucine at position 1496) and NS5A (serine to isoleucine at position 2204) to improve replication in cell culture.
(§2) HCV replicon luciferase assays were developed to monitor the inhibitory effects of compounds described in the disclosure on HCV genotypes 1a and 1b viral replication. HUH-7 cells, constitutively expressing the HCV replicon, were grown in Dulbecco's Modified Eagle Media (DMEM) (Gibco-BRL) containing 10% Fetal calf serum (FCS) (Sigma) and 1 mg/mL G418 (Gibco-BRL). Compounds were serially diluted 3 folds in DMSO for a twenty-point titration and subsequently transferred to sterile 384-well tissue-culture treated plates (Corning cat #3571). The plates were then seeded with 50 μL of cells at a density of 3.0×10^3 cells/well in DMEM containing 4% FCS (final DMSO concentration at 0.5%). After 3 days incubation at 37° C., cells were analyzed for Renilla Luciferase activity using the EnduRen as substrate (Promega cat #E6485). The EnduRen substrate was diluted in DMEM and then added to the plates to a final concentration of 7.5 μM. The plates were incubated for 2 hrs at 37° C. and then read immediately for 30 seconds with Viewlux Imager (PerkinElmer) using a luminescence program. To assess cytotoxicity of compounds, CC50 values were generated by multiplexing the EnduRen-containing plates with Cell Titer-Blue (Promega, cat #G8082). Cell-Titer Blue (3 μL) was added to each well and incubated for 8 hrs at 37° C. The fluorescence signal from each well was read, with an excitation wavelength at 525/10 nm and an emission wavelength of 598/10 nm, using the Viewlux Imager.
(§3) The EC50 values for compounds were calculated by using a four-parameter logistic equation: y=A+((B−A)/(1+((C/x)^D))), where A and B denotes minimal and maximal % inhibition, respectively, C is the EC50, D is the hill slope and x represents compound concentration.

[2] = tested on: HCV genotype 1b (Con1) replicon in HUH-7 cells; assay: HCV replicon luciferase reporter assay, genotype 1b; format: cell-based; conditions: Hepatitis C virus, 72 h, HCV genotype 1b replicon, 3 days incubation, Renilla luciferase, range classes
Excerpt: as §1, with “time. […]” for “time.”
as §2, §3

Row | Compound | EC50 [1] | EC50 [2]
1 | COc1ccc2c(O[C@@H]3C[C@H]4C(=O)N[C@]5(C(=O)NS(=O)(=O)C6(C)CC6)C[C@H]5/C=C\[C@H](C)CCC[C@@H](C)[C@H](NC(=O)OC(C)(C)C(F)(F)F)C(=O)N4C3)ncc(OC)c2c1 [Compound 14, 1,1,1-trifluoro-2-methylpropan-2-yl (2R,6S,7R,11R,13aS,14aR,16aS,Z)-2-(4,6-dimethoxyisoquinolin-1-yloxy)-7,11-dimethyl-14a-(1-methylcyclopropylsulfonylcarbamoyl)-5,16-dioxo-1,2,3,5,6,7,8,9,10,11,13a,14,14a,15,16,16a-hexadecahydrocyclopropa[e]pyrrolo[1,2-a][1,4]diazacyclopentadecin-6-ylcarbamate] | 2.01 to 5 nM | 1.01 to 2 nM
2 | COc1cc2c(OC)cnc(O[C@@H]3C[C@H]4C(=O)N[C@]5(C(=O)NS(=O)(=O)C6(C)CC6)C[C@H]5/C=C\[C@H](C)CCC[C@@H](C)[C@H](NC(=O)OC(C)(C)C(F)(F)F)C(=O)N4C3)c2cc1F [Compound 15, 1,1,1-trifluoro-2-methylpropan-2-yl (2R,6S,7R,11R,13aS,14aR,16aS,Z)-2-(7-fluoro-4,6-dimethoxyisoquinolin-1-yloxy)-7,11-dimethyl-14a-(1-methylcyclopropylsulfonylcarbamoyl)-5,16-dioxo-1,2,3,5,6,7,8,9,10,11,13a,14,14a,15,16,16a-hexadecahydrocyclopropa[e]pyrrolo[1,2-a][1,4]diazacyclopentadecin-6-ylcarbamate] | 1.01 to 2 nM | 1.01 to 2 nM
3 | COc1ccc2ncc(O[C@@H]3C[C@H]4C(=O)N[C@]5(C(=O)NS(=O)(=O)C6(C)CC6)C[C@H]5/C=C\[C@H](C)CCC[C@@H](C)[C@H](NC(=O)OC(C)(C)C(F)(F)F)C(=O)N4C3)nc2c1 [Compound 17] | 5.01 to 68 nM | 5.01 to 68 nM
4 | COc1ccc2ncc(O[C@@H]3C[C@H]4C(=O)N[C@]5(C(=O)NS(=O)(=O)C6(C)CC6)C[C@H]5/C=C\[C@@H](C)CCC[C@@H](C)[C@H](NC(=O)OC(C)(C)C(F)(F)F)C(=O)N4C3)nc2c1 [Compound 18] | 5.01 to 68 nM | 5.01 to 68 nM
5 | CCOc1cnc(O[C@@H]2C[C@H]3C(=O)N[C@]4(C(=O)NS(=O)(=O)C5(C)CC5)C[C@H]4/C=C\[C@H](C)CCC[C@@H](C)[C@H](NC(=O)OC(C)(C)C(F)(F)F)C(=O)N3C2)c2ccccc12 [Compound 19, 1,1,1-trifluoro-2-methylpropan-2-yl (2R,6S,7R,11R,13aS,14aR,16aS,Z)-2-(4-ethoxyisoquinolin-1-yloxy)-7,11-dimethyl-14a-(1-methylcyclopropylsulfonylcarbamoyl)-5,16-dioxo-1,2,3,5,6,7,8,9,10,11,13a,14,14a,15,16,16a-hexadecahydrocyclopropa[e]pyrrolo[1,2-a][1,4]diazacyclopentadecin-6-ylcarbamate] | 2.01 to 5 nM | 1.01 to 2 nM
6 | COc1ccc2c(O[C@@H]3C[C@H]4C(=O)N[C@]5(C(=O)NS(=O)(=O)C6CC6)C[C@H]5/C=C\[C@H](C)CCC[C@@H](C)[C@H](NC(=O)OC(C)(C)C)C(=O)N4C3)ncc(OC)c2c1 [Compound 21, tert-butyl (2R,6S,7R,11R,13aS,14aR,16aS,Z)-14a-(cyclopropylsulfonylcarbamoyl)-2-(4,6-dimethoxyisoquinolin-1-yloxy)-7,11-dimethyl-5,16-dioxo-1,2,3,5,6,7,8,9,10,11,13a,14,14a,15,16,16a-hexadecahydrocyclopropa[e]pyrrolo[1,2-a][1,4]diazacyclopentadecin-6-ylcarbamate] | 1.01 to 2 nM | 0.2 to 1 nM
7 | COc1ccc2c(O[C@@H]3C[C@H]4C(=O)N[C@]5(C(=O)NS(=O)(=O)C6CC6)C[C@H]5/C=C\[C@H](C)CCC[C@@H](C)[C@H](NC(=O)OC(C)(C)C(F)(F)F)C(=O)N4C3)ncc(OC)c2c1 [Compound 22, 1,1,1-trifluoro-2-methylpropan-2-yl (2R,6S,7R,11R,13aS,14aR,16aS,Z)-14a-(cyclopropylsulfonylcarbamoyl)-2-(4,6-dimethoxyisoquinolin-1-yloxy)-7,11-dimethyl-5,16-dioxo-1,2,3,5,6,7,8,9,10,11,13a,14,14a,15,16,16a-hexadecahydrocyclopropa[e]pyrrolo[1,2-a][1,4]diazacyclopentadecin-6-ylcarbamate] | 1.01 to 2 nM | 0.2 to 1 nM
8 | COc1cnc(O[C@@H]2C[C@H]3C(=O)N[C@]4(C(=O)NS(=O)(=O)C5CC5)C[C@H]4/C=C\[C@H](C)CCC[C@@H](C)[C@H](NC(=O)OC(C)(C)C)C(=O)N3C2)c2cc(F)ccc12 [Compound 23, tert-butyl (2R,6S,7R,11R,13aS,14aR,16aS,Z)-14a-(cyclopropylsulfonylcarbamoyl)-2-(7-fluoro-4-methoxyisoquinolin-1-yloxy)-7,11-dimethyl-5,16-dioxo-1,2,3,5,6,7,8,9,10,11,13a,14,14a,15,16,16a-hexadecahydrocyclopropa[e]pyrrolo[1,2-a][1,4]diazacyclopentadecin-6-ylcarbamate] | 5.01 to 68 nM | 5.01 to 68 nM
9 | COc1cnc(O[C@@H]2C[C@H]3C(=O)N[C@]4(C(=O)NS(=O)(=O)C5CC5)C[C@H]4/C=C\[C@H](C)CCC[C@@H](C)[C@H](NC(=O)OC(C)(C)C(F)(F)F)C(=O)N3C2)c2cc(F)ccc12 [Compound 24, 1,1,1-trifluoro-2-methylpropan-2-yl (2R,6S,7R,11R,13aS,14aR,16aS,Z)-14a-(cyclopropylsulfonylcarbamoyl)-2-(7-fluoro-4-methoxyisoquinolin-1-yloxy)-7,11-dimethyl-5,16-dioxo-1,2,3,5,6,7,8,9,10,11,13a,14,14a,15,16,16a-hexadecahydrocyclopropa[e]pyrrolo[1,2-a][1,4]diazacyclopentadecin-6-ylcarbamate] | 5.01 to 68 nM | 5.01 to 68 nM
10 | COc1cnc(O[C@@H]2C[C@H]3C(=O)N[C@]4(C(=O)NS(=O)(=O)C5(C)CC5)C[C@H]4/C=C\[C@H](C)CCC[C@@H](C)[C@H](NC(=O)OC(C)(C)C(F)(F)F)C(=O)N3C2)c2cccc(Cl)c12 [Compound 25, 1,1,1-trifluoro-2-methylpropan-2-yl (2R,6S,7R,11R,13aS,14aR,16aS,Z)-2-(5-chloro-4-methoxyisoquinolin-1-yloxy)-7,11-dimethyl-14a-(1-methylcyclopropylsulfonylcarbamoyl)-5,16-dioxo-1,2,3,5,6,7,8,9,10,11,13a,14,14a,15,16,16a-hexadecahydrocyclopropa[e]pyrrolo[1,2-a][1,4]diazacyclopentadecin-6-ylcarbamate] | 1.01 to 2 nM | 0.2 to 1 nM
